In publication PMC3944524, “Antimicrobial Activity of the Marine Alkaloids, Clathrodin and Oroidin, and Their Synthetic Analogues” (Marine Drugs, 2014):
≈ marks a conversion by molar mass, not a printed value.

Experiments:
[1] = tested on: Huh-7 cells; assay: Mammalian cell cytotoxicity, ATP assay (CellTiter-Glo); assay type: cell-based, human
Experimental: (§1) Huh-7 cells (originating from human hepatocellular carcinoma) were kindly provided by Prof. Ralf Bartenschlager (University of Heidelberg, Heidelberg, Germany). […] The cells were incubated at 37 °C in a humidified atmosphere with 5% CO2. The effect of the most promising compounds on the metabolic activity of Huh-7 hepatocytes was assessed by intracellular ATP quantitation (Promega’s CellTiter-Glo Cell Viability Assay, Madison, WI, USA). In brief, cells were seeded at 20,000 cells/well on white-walled 96-well microplates (ViewPlate, PerkinElmer Inc., Wellesley, MA, USA) and incubated at 37 °C, 5% CO2 and 95% humidity overnight and then exposed to the compounds for 24 h. Following the exposure, cells were washed with 100 µL PBS, and 50 µL of fresh assay media and 50 µL of the CellTiter-Glo reagent were added into the wells. After 2 min of shaking and 10 min incubation at rt, luminometric signal was measured using a Varioskan Flash plate reader (Thermo Fisher Scientific, Vantaa, Finland). […] The IC50 values were calculated by fitting the data into sigmoidal dose-response curves with the Origin software.

[2] = as above; assay type: cell-based, human; details: human, Huh-7 cells, ATP assay, 24 h exposure, average of two dose-response experiments
Experimental: as §1

[3] = tested on: Candida albicans (ATCC 90028); assay: Broth microdilution antifungal assay, Candida albicans; assay type: cell-based
Experimental: Clinical control strains of Enterococcus faecalis (Gram-positive, ATCC 29212), Staphylococcus aureus (Gram-positive, ATCC 25923), Escherichia coli (Gram-negative, ATCC 25922) and a fungal strain, Candida albicans (ATCC 90028), were obtained from Microbiologics Inc. (St. Cloud, MN, USA) and used for the antimicrobial screening. Bacterial strains were grown on Mueller Hinton II agar (MHA, Becton Dickinson, Franklin Lakes, NJ, USA) slants and Mueller Hinton II broth (MHB, Becton Dickinson, Franklin Lakes, NJ, USA) and the Candida strain on Sabouraud dextrose agar (SDA, Becton Dickinson, Franklin Lakes, NJ, USA) plates. Media were prepared in MilliQ water, according to the manufacturer’s instructions, and autoclaved at 121 °C for 15 min. Prior to the assay, bacterial suspensions were prepared in MHB from fresh slant cultures and incubated at 37 °C for 16–20 h at 100 rpm. The Candida strain was grown on SDA plates at 28 °C for 18–24 h and suspended into sterile 0.9% saline for the assay.
Antimicrobial assays were performed by the broth microdilution method following the guidelines of the Clinical and Laboratory Standards Institute (CLSI) and European Committee on Antimicrobial Susceptibility Testing (EUCAST). Bacterial suspensions were prepared as described above and diluted with MHB to obtain a final inoculum of 5 × 10^5 colony-forming units (CFU)/milliliters in the assay (determined on the basis of absorbance values at 620 nm previously calibrated against plate counts). The Candida suspension was prepared in sterile 0.9% saline solution, and the suspension was diluted in RPMI-1640 media (with L-glutamine, without NaHCO3 and supplemented with 2% glucose and 0.165 M MOPS, buffered to pH 7; Lonza, Basel, Switzerland) to yield a final inoculum of 2.5 × 10^3 CFU/mL in the assay. Assays were carried out in clear 96-well microtiter plates and initiated by dispensing an equal volume of microbial suspension and sample solution diluted into the assay medium. The plates were incubated for 24 h at 37 °C (for Candida, the incubation was at 28 °C for 48 h) with agitation. Absorbance was measured at 620 nm with a plate reader at 0, 4 and 24 h with the bacteria and at 0, 24 and 48 h with Candida. The antimicrobial activity of the samples was calculated from the absorbance values by comparing to untreated controls and expressed as the percentage inhibition of growth. Reference antibiotics were used as positive controls on every assay plate (see Figure 2 for details). […] MIC50 values were determined from the dose-response results by sigmoidal curve fitting with Origin software (OriginLab, Corp., Wellesley Hills, MA, USA).

[4] = tested on: Staphylococcus aureus (ATCC 25923); assay: Broth microdilution antimicrobial assay, Staphylococcus aureus; assay type: cell-based; details: for SI (selectivity index): S. aureus MIC50 vs Huh-7 cytotoxicity IC50; for MIC90 / inhibition at 50 µM / MIC50: Staphylococcus aureus; for inhibition at 50 µM / inhibition of growth, primary screen: n = 3, hit threshold >80%, 50 µM; for inhibition at 50 µM: read-out: inhibition of growth, primary screen; for MIC50: sigmoidal curve fitting
Experimental: (§2) Clinical control strains of Enterococcus faecalis (Gram-positive, ATCC 29212), Staphylococcus aureus (Gram-positive, ATCC 25923), Escherichia coli (Gram-negative, ATCC 25922) and a fungal strain, Candida albicans (ATCC 90028), were obtained from Microbiologics Inc. (St. Cloud, MN, USA) and used for the antimicrobial screening. Bacterial strains were grown on Mueller Hinton II agar (MHA, Becton Dickinson, Franklin Lakes, NJ, USA) […] Mueller Hinton II broth (MHB, Becton Dickinson, Franklin Lakes, NJ, USA) and the Candida strain on Sabouraud dextrose agar (SDA, Becton Dickinson, Franklin Lakes, NJ, USA) plates. Media were prepared in MilliQ water, according to the manufacturer's instructions, and autoclaved at 121 °C for 15 min. […] The Candida strain was grown on SDA plates at 28 °C for 18-24 h and suspended into sterile 0.9% saline for the assay. Antimicrobial assays were performed by the broth microdilution method following the guidelines of the Clinical and Laboratory Standards Institute (CLSI) and European Committee on Antimicrobial Susceptibility Testing (EUCAST). […] The Candida suspension was prepared in sterile 0.9% saline solution, and the suspension was diluted in RPMI-1640 media (with L-glutamine, without NaHCO3 and supplemented with 2% glucose and 0.165 M MOPS, buffered to pH 7; Lonza, Basel, Switzerland) to yield a final inoculum of 2.5 × 10^3 CFU/mL in the assay. Assays were carried out in clear 96-well microtiter plates and initiated by dispensing an equal volume of microbial suspension and sample solution diluted into the assay medium. The plates were incubated for 24 h at 37 °C (for Candida, the incubation was at 28 °C for 48 h) with agitation. […] The antimicrobial activity of the samples was calculated from the absorbance values by comparing to untreated controls and expressed as the percentage inhibition of growth. Reference antibiotics were used as positive controls on every assay plate (see Figure 2 for details). […] MIC50 values were determined from the dose-response results by sigmoidal curve fitting with Origin software (OriginLab, Corp., Wellesley Hills, MA, USA).

[5] = tested on: Enterococcus faecalis (ATCC 29212); assay: Broth microdilution antimicrobial assay, Enterococcus faecalis; assay type: cell-based; details: for inhibition at 50 µM / inhibition of growth, primary screen: n = 3, hit threshold >80%, 50 µM; for inhibition at 50 µM: read-out: inhibition of growth, primary screen
Experimental: as §2

[6] = tested on: Escherichia coli (ATCC 25922); assay: Broth microdilution antimicrobial assay, Escherichia coli; assay type: cell-based
Experimental: as §2

[7] = 50 µM, 48 h, n = 3, hit threshold >80%
[8] = ATCC25923, S. aureus ATCC 25923, 24 h
[9] = Enterococcus faecalis, ATCC29212, 24 h
[10] = 50 µM, 24 h, n = 3, hit threshold >80%

## Polymyxin-B sulfate [reference compound]
[1]; 15,000 IU/mL, positive control, 24 h
  average cytotoxicity: 88%

## Nc1nc(/C=C/CNC(=O)c2cc(Br)c(Br)[nH]2)c[nH]1 [Compound 2b, (E)-N-(3-(2-amino-1H-imidazol-4-yl)allyl)-4,5-dibromo-1H-pyrrole-2-carboxamide]
[2]
  IC50 at 24 h: > 100 µM
[3]; [7]
  inhibition of growth, primary screen: inactive
[4]
  SI (selectivity index): >3.3
[4]; ATCC25923, 24 h
  MIC90: 100 µM
  inhibition at 50 µM: > 90%
[4]; [8]
  MIC50: 30.6 µM (≈ 11.9 µg/mL)
[5]; [9]
  inhibition at 50 µM: ~50%
[6]; [10]
  inhibition of growth, primary screen: inactive

## Cl.Nc1nc(-c2cccc(NC(=O)c3cc4cc(OCc5ccccc5)ccc4[nH]3)c2)c[nH]1 [Compound 6h, 2-Amino-4-(3-(5-(benzyloxy)-1H-indole-2-carboxamido)phenyl)-1H-imidazol-3-ium chloride]
[2]
  IC50 at 24 h: 21.2 µM
[3]; [7]
  inhibition of growth, primary screen: no activity
[4]; 24 h
  inhibition of growth, primary screen: active
[4]
  SI (selectivity index): 2.9
[4]; ATCC25923, 24 h
  MIC90: 12.5 µM
[4]; [8]
  MIC90: 5.7 µg/mL
  MIC50: 7.3 µM
[5]; 24 h
  inhibition of growth, primary screen: active
[5]; E. faecalis MIC50 vs Huh-7 cytotoxicity IC50
  SI (selectivity index): 2.7
[5]; [9]
  MIC90: 12.5 µM
[5]; Enterococcus faecalis, ATCC29212, E. faecalis ATCC 29212, 24 h
  MIC90: 5.7 µg/mL
[5]; Enterococcus faecalis, ATCC29212, E. faecalis ATCC 29212, 24 h, sigmoidal curve fitting
  MIC50: 8 µM
other
  melting point: 175 to 178 °C
[6]; [10]
  inhibition of growth, primary screen: active
[6]; E. coli MIC50 vs Huh-7 cytotoxicity IC50
  SI (selectivity index): 0.7
[6]; Escherichia coli, ATCC25922, 24 h
  MIC90: 50 µM
[6]; Escherichia coli, ATCC25922, E. coli ATCC 25922, 24 h, sigmoidal curve fitting
  MIC50: 30.4 µM

## CC(C)(C)OC(=O)n1cc(-c2cccc(NC(=O)c3cc4cc(Cl)ccc4[nH]3)c2)nc1N [Compound 5i, tert-Butyl 2-amino-4-(3-(5-chloro-1H-indole-2-carboxamido)phenyl)-1H-imidazole-1-carboxylate]
[2]
  IC50 at 24 h: > 100 µM
[1]; 100 µM
  cytotoxicity at highest tested concentration: non-cytotoxicity
[4]
  SI (selectivity index): >8.6
[4]; ATCC25923, 24 h
  MIC90: 75 µM
[4]; [8]
  MIC50: 11.7 µM (≈ 5.29 µg/mL)
other
  melting point: 188 to 190 °C

## C[C@@H]1[C@H](O)[C@@H](C)/C=C/C=C/C=C/C=C/C=C/C=C/C=C/[C@H](O[C@@H]2O[C@H](C)[C@@H](O)[C@H](N)[C@@H]2O)C[C@@H]2O[C@](O)(C[C@@H](O)C[C@@H](O)[C@H](O)CC[C@@H](O)C[C@@H](O)CC(=O)O[C@H]1C)C[C@H](O)[C@H]2C(=O)O [amphotericin B, reference compound]
[3]; Candida albicans, ATCC90028, 48 h
  MIC90: 0.5 µM
[3]; Candida albicans, ATCC90028, C. albicans ATCC 90028, 48 h
  MIC90: 0.5 µg/mL

## Nc1nc(/C=C/CNC(=O)c2ccc[nH]2)c[nH]1 [Compound 2a, (E)-N-(3-(2-amino-1H-imidazol-4-yl)allyl)-1H-pyrrole-2-carboxamide]
[3]; Candida albicans, ATCC90028, 50 µM, 48 h, n = 3, hit threshold >80%, read-out: inhibition of growth, primary screen
  inhibition at 50 µM: < 80%
[4]; ATCC25923, 24 h
  inhibition at 50 µM: < 80%
[5]; [9]
  inhibition at 50 µM: < 80%
[6]; Escherichia coli, ATCC25922, 50 µM, 24 h, n = 3, hit threshold >80%, read-out: inhibition of growth, primary screen
  inhibition at 50 µM: < 80%

## Nc1nc(-c2cccc(NC(=O)c3c[nH]c4ccccc34)c2)c[nH]1 [Compound 6e]
[3]; [7]
  inhibition of growth, primary screen: inactive
[4]; 24 h
  inhibition of growth, primary screen: inactive
[5]; 24 h
  inhibition of growth, primary screen: inactive
[6]; [10]
  inhibition of growth, primary screen: inactive
